Legend:
Assay type in all cases: functional
[1] = system: Mus musculus; assay: (§1) Neuroprotective activity in haloperidol-induced catalepsy Mus musculus Swiss albino (mouse) model assessed as GSH-Px activity per mg protein in brain homogenate at 100 mg/kg, po administered 30 min before haloperidol challenge measured after 4 hr post challenge by spectrophotometry (reference value: 2.129 +/- 0.06 U/mg protein)
[2] = system: Mus musculus; assay: as §1, with “as Cu-Zn-SOD” for “as GSH-Px”, “per gram” for “per mg”, “by NBT reduction assay” for “by spectrophotometry”, “value: 1.794” for “value: 2.129”, “+/- 0.03 U/g” for “+/- 0.06 U/mg”
[3] = system: Mus musculus; assay: as §1, with “GSH level” for “GSH-Px activity”, “gram of” for “mg protein in”, “tissue” for “homogenate”, “23.45” for “2.129”, “0.23 ug/g tissue)” for “0.06 U/mg protein)”
[4] = system: Mus musculus; assay: Neuroprotective activity in Mus musculus Swiss albino (mouse) model assessed as reduction in haloperidol-induced catalepsy at 100 mg/kg, ip administered 30 min before haloperidol challenge measured for 30 to 180 min; parameters: scale not given: the % may be the effect or the level left; conditions: route intraperitoneal
[5] = system: Mus musculus; assay: Neuroprotective activity in haloperidol-induced catalepsy Mus musculus Swiss albino (mouse) model assessed as mean cumulative descent time at 100 mg/kg, po administered 30 min before haloperidol challenge (reference value: 33 +/- 1.34 min)
[6] = system: Mus musculus; assay: Neuroprotective activity in haloperidol-induced catalepsy Mus musculus Swiss albino (mouse) model assessed as mean descent time at 100 mg/kg, po administered 30 min before haloperidol challenge measured at 30 min post challenge
[7] = system: Mus musculus; assay: Neuroprotective activity in haloperidol-induced catalepsy Mus musculus Swiss albino (mouse) model assessed as mean descent time at 100 mg/kg, po administered 30 min before haloperidol challenge measured at 60 min post challenge
[8] = system: Mus musculus; assay: Neuroprotective activity in haloperidol-induced catalepsy Mus musculus Swiss albino (mouse) model assessed as mean descent time at 100 mg/kg, po administered 30 min before haloperidol challenge measured at 90 min post challenge
[9] = system: Mus musculus; assay: Neuroprotective activity in haloperidol-induced catalepsy Mus musculus Swiss albino (mouse) model assessed as mean descent time at 100 mg/kg, po administered 30 min before haloperidol challenge measured at 120 min post challenge
[10] = system: Mus musculus; assay: Neuroprotective activity in haloperidol-induced catalepsy Mus musculus Swiss albino (mouse) model assessed as mean descent time at 100 mg/kg, po administered 30 min before haloperidol challenge measured at 150 min post challenge
[11] = system: Mus musculus; assay: Neuroprotective activity in haloperidol-induced catalepsy Mus musculus Swiss albino (mouse) model assessed as mean descent time at 100 mg/kg, po administered 30 min before haloperidol challenge measured at 180 min post challenge
[12] = system: Mus musculus; assay: as §1, with “inhibition of MDA equivalent TBARS release” for “GSH-Px activity”, “1.157” for “2.129”, “nmol/mg” for “U/mg”

COc1ccc(NC(=O)Nc2nc3c(ccc4ccccc43)s2)c(OC)c1
Activity [1]: 1.61 U/mg | Activity [2]: 1.469 U/g protein | Activity [3]: 13.6 µg/g | Activity [4]: 75% | Time [5]: 6.92 min | Time [6]: 32 s | Time [7]: 35 s | Time [8]: 39 s | Time [9]: 68 s | Time [10]: 120 s | Time [11]: 121 s | Activity [12]: 2.706 nmol/mg protein

O=C(CCCN1CCC(O)(c2ccc(Cl)cc2)CC1)c1ccc(F)cc1 [HALOPERIDOL]
Activity [1]: 1.14 U/mg | Activity [3]: 6.85 µg/g | Time [5]: 26 min | Time [6]: 176 s | Time [7]: 217 s | Time [8]: 268 s | Time [9]: 300 s | Time [10]: 300 s | Time [11]: 300 s

COc1ccccc1NC(=S)Nc1nc2c(ccc3ccccc32)s1
Activity [1]: 2.1 U/mg | Activity [2]: 1.684 U/g protein | Activity [3]: 13.1 µg/g | Activity [4]: 75.46% | Time [5]: 6.8 min | Time [6]: 19 s | Time [7]: 44 s | Time [8]: 65 s | Time [9]: 87 s | Time [10]: 98 s | Time [11]: 95 s | Activity [12]: 2.045 nmol/mg protein

COc1ccccc1NC(=O)Nc1nc2c(ccc3ccccc32)s1
Activity [1]: 1.83 U/mg | Activity [2]: 1.622 U/g protein | Activity [3]: 16.8 µg/g | Activity [4]: 76.9% | Time [5]: 6.43 min | Time [6]: 11 s | Time [7]: 28 s | Time [8]: 43 s | Time [9]: 87 s | Time [10]: 109 s | Time [11]: 108 s | Activity [12]: 2.504 nmol/mg protein

O=[N+]([O-])c1ccccc1NC(=S)Nc1nc2c(ccc3ccccc32)s1
Activity [1]: 1.77 U/mg | Activity [2]: 1.398 U/g protein | Activity [3]: 12.5 µg/g | Activity [4]: 72.97% | Time [5]: 7.43 min | Time [6]: 20 s | Time [7]: 36 s | Time [8]: 71 s | Time [9]: 88 s | Time [10]: 109 s | Time [11]: 122 s | Activity [12]: 3.226 nmol/mg protein
